Source: patent US20240174696A1, “2,8-DIAZASPIRO[4.5]DECANE COMPOUNDS” (Genentech, Inc., priority 2021, published 2024)

Key:
[1] = tested on: TAZ nuclear translocation in SW1990 cells; experiment: TAZ Nuclear Translocation Assay; format: cell-based; settings: Homo sapiens, 4 hours
Procedure, shortened: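 SW1990 cells in RPMI1640/10% FBS treated with compounds for 4 h at 37 °C, then fixed and immunostained for TAZ with Hoechst nuclear counterstain and imaged by high-content imaging. Read-out is the nuclear/cytoplasmic-ring fluorescence ratio, normalized to DMSO (0%) and an inhibitor control (100%); EC50 from four-parameter fit.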

[2] = molecular target: Human LATS2 catalytic domain (Homo sapiens (Human), UniProt Q9NRM7); experiment: LATS2 High ATP HTRF Assay; format: biochemical; settings: no asterisk: LATS2 High ATP HTRF Assay, 5000 μM ATP, 0.05 nM LATS2
Procedure, shortened: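 Phosphorylation of 0.5 μM STK S1 peptide at high ATP (5000 μM), 2 h at room temperature, by 0.05 nM LATS2 kinase domain/Mob1b complex after 10 min compound pre-incubation. Ki derived from HTRF-based IC50 (4-parameter logistic) by Cheng-Prusoff, ATP Km 105 μM.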

[3] = tested on: pYAP(Ser127) in SW1990 cells; experiment: pYAP(Ser127) HTRF Cellular Assay; format: cell-based; settings: Homo sapiens, 4 hours
Method: The SW1990 cells were seeded at 8000 cells/well by adding 30 μL/well of cells in RPMI1640, 10% FBS, 2 mM glutamine culture media to a 384-well plate (Corning 3570). The cells were incubated overnight at 37° C. Next day, compounds were directly added to the cells using the Echo Liquid Handler (Labcyte), incubate at 37° C. for 4 hours.
The HTRF assay was performed using the Cisbio phospho-YAP Ser127 HTRF kit (64YAPPEG). The media was aspirated from the cells. 20 μL of 1X lysis/blocking buffer was added to the cells, gently shake for 30 minutes at room temperature. 1 μL of the premixed antibody solution (1:40 dilution of each phospho-YAP Eu Cryptate antibody and phospho-YAP d2 antibody) was added to the cells. The plate was sealed and incubated overnight at room temperature. The HTRF (665 nm/620 nm) signal was read on the PHERAstar reader (BMG Labtech). The EC50 values were calculated by fitting the % inhibition with a nonlinear four-parameter logistical equation.

Human LATS2 catalytic domain, sequence (Q9NRM7 553-1088): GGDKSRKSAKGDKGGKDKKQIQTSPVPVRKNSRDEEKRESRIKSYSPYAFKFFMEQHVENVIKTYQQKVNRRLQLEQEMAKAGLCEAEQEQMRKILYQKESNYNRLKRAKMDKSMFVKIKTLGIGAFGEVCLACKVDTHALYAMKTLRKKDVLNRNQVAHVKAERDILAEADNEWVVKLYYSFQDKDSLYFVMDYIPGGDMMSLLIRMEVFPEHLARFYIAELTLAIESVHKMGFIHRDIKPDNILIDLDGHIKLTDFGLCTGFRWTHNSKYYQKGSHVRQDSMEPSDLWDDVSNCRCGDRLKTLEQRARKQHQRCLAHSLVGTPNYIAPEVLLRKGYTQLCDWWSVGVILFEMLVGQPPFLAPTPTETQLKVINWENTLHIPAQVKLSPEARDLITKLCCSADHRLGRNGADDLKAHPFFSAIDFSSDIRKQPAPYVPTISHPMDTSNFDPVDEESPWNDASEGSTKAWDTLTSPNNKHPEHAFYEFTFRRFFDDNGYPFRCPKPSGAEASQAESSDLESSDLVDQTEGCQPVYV
Human LATS2 catalytic domain, sequence (Q7L9L4 whole entry partner, the tested form may be a part): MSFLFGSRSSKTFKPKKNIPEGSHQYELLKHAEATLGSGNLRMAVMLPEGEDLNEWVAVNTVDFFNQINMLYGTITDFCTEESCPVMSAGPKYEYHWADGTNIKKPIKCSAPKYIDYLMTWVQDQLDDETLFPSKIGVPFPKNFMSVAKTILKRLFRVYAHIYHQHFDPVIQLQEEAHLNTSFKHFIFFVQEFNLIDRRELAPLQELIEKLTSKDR

OCCN1CCC2(CCN(c3nc(-c4ccncc4)nc4cnccc34)CC2)C1 [Compound 114, 2-(8-(2-(pyridin-4-yl)pyrido[3,4-d]pyrimidin-4-yl)-2,8-diazaspiro[4.5]decan-2-yl)ethanol] was tested, and the EC50 [1] was 610 nM, the Ki [2] was 0.31 nM and the EC50 [3] was 550 nM.

In the case of OCCCN1CCC2(CCN(c3nc(-c4ccncc4)nc4cnccc34)CC2)C1 [Compound 120, 3-(8-(2-(pyridin-4-yl)pyrido[3,4-d]pyrimidin-4-yl)-2,8-diazaspiro[4.5]decan-2-yl)propan-1-ol], the EC50 [1] is reported as 370 nM, the Ki [2] is reported as 0.17 nM and the EC50 [3] is reported as 360 nM.

COCCN1CCC2(CCN(c3nc(-c4ccncc4)nc4cnccc34)CC2)C1 [Compound 121, 4-(2-(2-methoxyethyl)-2,8-diazaspiro[4.5]decan-8-yl)-2-(pyridin-4-yl)pyrido[3,4-d]pyrimidine] gave an EC50 [1] of 300 nM, a Ki [2] of 0.8 nM and an EC50 [3] of 630 nM.

Work on FC(F)CN1CCC2(CCN(c3nc(-c4ccncc4)nc4cnccc34)CC2)C1 [Compound 127, 4-(2-(2,2-difluoroethyl)-2,8-diazaspiro[4.5]decan-8-yl)-2-(pyridin-4-yl)pyrido[3,4-d]pyrimidine] yielded an EC50 [1] of 1300 nM, a Ki [2] of 0.55 nM and an EC50 [3] of 3400 nM.

c1cc(-c2nc(N3CCC4(CC3)CCN(C3CCC3)C4)c3ccncc3n2)ccn1 [Compound 131, 4-(2-cyclobutyl-2,8-diazaspiro[4.5]decan-8-yl)-2-(pyridin-4-yl)pyrido[3,4-d]pyrimidine] gave an EC50 [1] of 280 nM, a Ki [2] of 0.29 nM and an EC50 [3] of 490 nM.

For c1ccc(CN2CCC3(CCN(c4nc(-c5ccncc5)nc5cnccc45)CC3)C2)cc1 [Compound 133, 4-(2-benzyl-2,8-diazaspiro[4.5]decan-8-yl)-2-(pyridin-4-yl)pyrido[3,4-d]pyrimidine], the EC50 [1] was 400 nM, the Ki [2] was 0.069 nM and the EC50 [3] was 250 nM.

Compound CCN1CCC2(CCN(c3nc(-c4ccncc4)nc4cnccc34)CC2)C1 [Compound 138, 4-(2-ethyl-2,8-diazaspiro[4.5]decan-8-yl)-2-(pyridin-4-yl)pyrido[3,4-d]pyrimidine] has an EC50 [1] of 590 nM, a Ki [2] of 0.61 nM and an EC50 [3] of 890 nM.

Cc1n[nH]cc1-c1nc(N2CCC3(CCN(C)C3)CC2)c2ccncc2n1 [Compound 143, 2-(3-methyl-1H-pyrazol-4-yl)-4-(2-methyl-2,8-diazaspiro[4.5]decan-8-yl)pyrido[3,4-d]pyrimidine] was tested, and the EC50 [1] was 700 nM, the Ki [2] was 0.15 nM and the EC50 [3] was 1000 nM.

With CCN1CCC2(CCN(c3nc(-c4cn[nH]c4C)nc4cnccc34)CC2)C1 [Compound 151, 4-(2-ethyl-2,8-diazaspiro[4.5]decan-8-yl)-2-(5-methyl-1H-pyrazol-4-yl)pyrido[3,4-d]pyrimidine] the EC50 [1] was 470 nM, the Ki [2] was 0.09 nM and the EC50 [3] was 390 nM.

Compound CC1CC2(CCN(c3nc(-c4ccncc4)nc4cnccc34)CC2)CN1 (stereo not drawn) [Compound 167, 4-(3-methyl-2,8-diazaspiro[4.5]decan-8-yl)-2-(pyridin-4-yl)pyrido[3,4-d]pyrimidine] has an EC50 [1] of 540 nM, a Ki [2] of 0.58 nM and an EC50 [3] of 300 nM.
